According to paper PMC10709440, “High-throughput ligand profile characterization in novel cell lines expressing seven heterologous insect olfactory receptors for the detection of volatile plant biomarkers” (Scientific Reports, 2023):

How the values were obtained:
Drosophila OR47a = biological target: T1, Drosophila OR47a (Drosophila melanogaster, UniProt P81921); experiment: Calcium ion fluorescence (GCaMP6) assay, OR47a stable HEK293 cell line; format: cell-based; details: for Average response: OR47a cell line, mean of biological replicates; for DF norm AVERAGE OR47a: normalized fluorescence change, values below 0.05 threshold given as 0; for activation at 1 µM / activation at 10 µM / activation at 100 µM: HEK293, read-out: OR47a response (VUAA1-normalized response)
T1 construct: expressed in transfected cells
T1 sequence (P81921 1-385): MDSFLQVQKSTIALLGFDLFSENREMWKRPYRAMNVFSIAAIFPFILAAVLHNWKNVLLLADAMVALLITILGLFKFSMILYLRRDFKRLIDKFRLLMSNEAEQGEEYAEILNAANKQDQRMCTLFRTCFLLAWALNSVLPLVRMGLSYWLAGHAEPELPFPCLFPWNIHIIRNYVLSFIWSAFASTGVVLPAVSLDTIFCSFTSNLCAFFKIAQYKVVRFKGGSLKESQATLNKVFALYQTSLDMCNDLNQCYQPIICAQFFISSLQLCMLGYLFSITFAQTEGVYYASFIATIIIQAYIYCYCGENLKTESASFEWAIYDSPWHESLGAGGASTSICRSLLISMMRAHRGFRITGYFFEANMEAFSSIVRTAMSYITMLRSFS
T1 sequence (Q9VNB5 1-486 partner): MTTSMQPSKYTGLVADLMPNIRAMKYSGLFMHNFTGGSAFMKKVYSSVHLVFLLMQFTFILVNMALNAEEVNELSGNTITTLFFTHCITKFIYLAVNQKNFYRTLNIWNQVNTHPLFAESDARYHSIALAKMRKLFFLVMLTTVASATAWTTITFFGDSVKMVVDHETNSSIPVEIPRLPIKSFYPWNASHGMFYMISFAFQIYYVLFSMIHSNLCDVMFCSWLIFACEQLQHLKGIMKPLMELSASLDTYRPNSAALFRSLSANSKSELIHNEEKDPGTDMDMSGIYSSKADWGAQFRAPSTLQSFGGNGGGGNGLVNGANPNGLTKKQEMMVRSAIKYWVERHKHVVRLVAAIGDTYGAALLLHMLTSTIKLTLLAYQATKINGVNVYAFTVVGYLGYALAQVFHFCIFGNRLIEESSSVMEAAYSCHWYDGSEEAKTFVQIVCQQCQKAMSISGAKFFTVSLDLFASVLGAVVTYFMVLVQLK
Procedure: (§1) These VUAA1 normalized ∆F values were used to compare the different receptors and ligands.
(§2) The concentration-dependent effect of the reference ligands on their cognate cell lines was examined in more detail. Twelve different ligand concentrations were measured on each cell line in an overall 0.01 μM to 100 μM concentration range with 5 repetitions with three technical replicates each time.
(§3) Twelve thousand to 18,000 cells were plated into each well of a black wall, transparent bottom 384-well microplate (Greiner) 48 h or 72 h before the measurements and were simultaneously treated with 1 μg/mL doxycycline. […] The plate has 24 columns, thus we could record responses in up to eight different cell lines in each plate. On the day of the experiment, the growth medium was replaced with 20 µL assay buffer/well (140 mM NaCl, 5 mM KCl, 2 mM CaCl2, 1 mM MgCl2, 5 mM HEPES-Na, 20 mM glucose, pH 7.3, 340 mOsm). […] Baseline fluorescence (F0) was recorded for 5 s, after which 7 µL VOC buffer (140 mM NaCl, 5 mM KCl, 2 mM CaCl2, 1 mM MgCl2, 5 mM HEPES-Na, 31 mM glucose, 0.1% DMSO, pH 7.3, 340 mOsm) was injected into each well in one row and the fluorescence response was recorded for an additional 30 s, at a rate of one read/sec. VOC solutions (VOC buffer with 4× concentration of the final measured VOC concentration, 9 µL/well was injected) were measured on the same wells in a second round with the same protocol. Each individual concentration of a specific VOC sample was recorded in three wells for the same cell line on the same microplate. The raw data were exported in xls file format, F0 and FMAX values, and the fluorescence intensity changes (∆F) were calculated in Excel (Microsoft) (Supplementary file Data summary.xlsx) using the following equation: ΔF=FMAX-F0/F0 (see also Fig. 1C). On each plate, we recorded the response of each cell line to 50 µM VUAA1. The average of these ∆F values of each cell line were used to calculate the VUAA1-normalized values for the rest of the plate, by dividing VOC response ∆F values by the average VUAA1 response ∆F value of the corresponding OR cell line. Each VOC-OR combination was measured three times as technical replicates. […] The average of these replicates were used as one ∆F and VUAA1-normalized ∆F in the following analysis.
(§4) In the next rows we tested the reference VOCs (or other VOCs known to activate the corresponding cell lines), in order to test if all cell lines are responsive. The remaining rows were used to test VOCs with unknown effect.
(§5) The recorded FMAX, F0, ∆F, VUAA1-normalized ∆F values, as well as the OR name, the name of the tested sample, and the final concentration for each well were copied into supplementary file Data summary.xlsx, that was used to summarize all the plates recorded. Here, the averages of the measurements were calculated for each receptor-VOC-concentration combination.

Drosophila OR71a = biological target: T2, Drosophila OR71a (Drosophila melanogaster, UniProt Q9VUK5); experiment: Calcium ion fluorescence (GCaMP6) assay, OR71a stable HEK293 cell line; format: cell-based; details: for Average response: OR71a cell line, VUAA1-normalized response, mean of biological replicates; for DF norm AVERAGE OR71a: normalized fluorescence change, values below 0.05 threshold given as 0; for activation at 1 µM / activation at 10 µM / activation at 100 µM: HEK293, read-out: OR71a response (VUAA1-normalized response)
T2 construct: expressed in transfected cells
T2 sequence (Q9VUK5 1-378): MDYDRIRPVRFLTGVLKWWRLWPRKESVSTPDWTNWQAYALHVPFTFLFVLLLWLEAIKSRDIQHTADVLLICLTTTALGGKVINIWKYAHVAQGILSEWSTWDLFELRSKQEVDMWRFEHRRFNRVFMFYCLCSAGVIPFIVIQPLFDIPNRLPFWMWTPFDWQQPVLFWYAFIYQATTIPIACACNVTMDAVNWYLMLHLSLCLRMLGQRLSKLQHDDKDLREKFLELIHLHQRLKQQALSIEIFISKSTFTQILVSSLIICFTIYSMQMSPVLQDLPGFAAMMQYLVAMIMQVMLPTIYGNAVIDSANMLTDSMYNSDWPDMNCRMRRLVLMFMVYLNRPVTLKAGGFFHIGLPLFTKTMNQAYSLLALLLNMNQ
T2 sequence (Q9VNB5 1-486 partner): T1 sequence (Q9VNB5 1-486 partner)
Procedure: as §1, §2, §3, §4, §5

SMILES	Average response (Drosophila OR47a; odorant cc. 1 µM)	Average response (Drosophila OR47a; odorant cc. 10 µM)	Average response (Drosophila OR47a; odorant cc. 100 µM)	DF norm AVERAGE OR47a (Drosophila OR47a; concentration 1)	DF norm AVERAGE OR47a (Drosophila OR47a; concentration 10)	DF norm AVERAGE OR47a (Drosophila OR47a; concentration 100)	Average response (Drosophila OR71a; cc. 1 µM)	Average response (Drosophila OR71a; cc. 10 µM)	Average response (Drosophila OR71a; cc. 100 µM)	DF norm AVERAGE OR71a (Drosophila OR71a; concentration 1)	DF norm AVERAGE OR71a (Drosophila OR71a; concentration 10)	DF norm AVERAGE OR71a (Drosophila OR71a; concentration 100)	activation at 1 µM (Drosophila OR47a) [%]	activation at 10 µM (Drosophila OR47a) [%]	activation at 100 µM (Drosophila OR47a) [%]	activation at 1 µM (Drosophila OR71a) [%]	activation at 10 µM (Drosophila OR71a) [%]	activation at 100 µM (Drosophila OR71a) [%]	also measured
C=C(C)C1CCC2(C)OC2C1 (single isomer, unassigned; (+)) [(+)-limonene oxide]	0.00	0.00	0.00	0	0	0	0.0247	0.0256	0.00	0	0	0	–	–	–	–	–	–	OR47a response (VUAA1-normalized response) (Drosophila OR47a; VOC concentration 1 μM): 0.00; OR47a response (VUAA1-normalized response) (Drosophila OR47a; VOC concentration 10 μM): 0.00; OR47a response (VUAA1-normalized response) (Drosophila OR47a; VOC concentration 100 μM): 0.00; OR71a response (VUAA1-normalized response) (Drosophila OR71a; VOC concentration 1 μM): 0.00; OR71a response (VUAA1-normalized response) (Drosophila OR71a; VOC concentration 10 μM): 0.00; OR71a response (VUAA1-normalized response) (Drosophila OR71a; VOC concentration 100 μM): 0.00
Cc1ccc(C)c(C)c1 [1,2,4-trimethylbenzene]	0.00	0.00	0.00	0	0	0	0.00	0.00	0.00	0	0	0	0	0	0	0	0	0	–
COc1cccc(OC)c1 [1,3-dimethoxy benzene]	0.00	0.00	0.0217	0	0	0	0.00	0.04	0.00	0	0	0	0	0	0	0	0	0	–
CCCCCCCO [1-heptanol]	0.00	0.00	0.0219	0	0	0	0.00	0.00	0.00	0	0	0	0	0	0	0	0	0	–
